From patent US8143293B2, “Kinase inhibitors useful for the treatment of myleoprolific diseases and other proliferative diseases” (Deciphera Pharmaceuticals, LLC, priority 2007, dated 2012)

Legend:
[1] = molecular target: T1, BaF3 cells transfected with wild type p210 BCR-Abl (Homo sapiens, UniProt P00519); test: Ba/F3 p210 whole cell proliferation assay; format: cell-based; conditions: 72 hours, Cell Titer Blue; read-out: Whole Cell Antiproliferation IC50, Ba/F3 p210 whole cell proliferation assay
T1 construct: fused on or other part: P11274 (Breakpoint cluster region protein)
T1 sequence (P00519 whole entry, change not shown, the tested form may be a part): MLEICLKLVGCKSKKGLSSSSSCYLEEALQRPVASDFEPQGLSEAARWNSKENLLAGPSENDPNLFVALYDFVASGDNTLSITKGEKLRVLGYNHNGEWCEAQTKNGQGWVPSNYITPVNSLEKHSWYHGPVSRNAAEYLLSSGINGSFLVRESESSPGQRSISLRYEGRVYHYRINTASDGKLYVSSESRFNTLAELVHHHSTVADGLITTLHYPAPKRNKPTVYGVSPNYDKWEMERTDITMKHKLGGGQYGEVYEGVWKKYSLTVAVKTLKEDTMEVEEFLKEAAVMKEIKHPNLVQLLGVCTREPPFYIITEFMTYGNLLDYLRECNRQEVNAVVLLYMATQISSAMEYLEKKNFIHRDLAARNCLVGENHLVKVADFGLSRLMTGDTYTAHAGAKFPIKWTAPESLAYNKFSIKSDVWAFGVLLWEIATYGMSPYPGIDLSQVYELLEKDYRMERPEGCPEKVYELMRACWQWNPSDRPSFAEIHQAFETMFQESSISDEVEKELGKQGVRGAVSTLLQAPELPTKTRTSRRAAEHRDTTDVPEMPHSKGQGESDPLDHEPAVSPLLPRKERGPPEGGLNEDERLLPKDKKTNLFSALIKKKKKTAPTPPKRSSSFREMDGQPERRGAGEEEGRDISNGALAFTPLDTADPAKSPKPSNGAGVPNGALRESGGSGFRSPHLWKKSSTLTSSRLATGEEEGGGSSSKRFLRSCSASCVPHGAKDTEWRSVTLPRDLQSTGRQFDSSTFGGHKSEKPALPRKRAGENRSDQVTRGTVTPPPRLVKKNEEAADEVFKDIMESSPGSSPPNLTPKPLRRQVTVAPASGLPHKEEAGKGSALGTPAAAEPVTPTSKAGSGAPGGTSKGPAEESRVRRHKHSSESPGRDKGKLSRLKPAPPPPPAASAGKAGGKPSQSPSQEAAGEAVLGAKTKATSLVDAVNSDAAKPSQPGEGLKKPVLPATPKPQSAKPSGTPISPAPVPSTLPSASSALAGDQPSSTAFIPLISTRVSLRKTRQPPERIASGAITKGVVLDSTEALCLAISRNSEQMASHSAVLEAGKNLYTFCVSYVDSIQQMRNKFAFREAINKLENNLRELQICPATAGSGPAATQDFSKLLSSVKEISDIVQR

[2] = molecular target: T2, c-Kit kinase (SEQ ID NO:9) (Homo sapiens, UniProt P10721); test: C-Kit kinase (SEQ ID NO:9) assay, pyruvate kinase/lactate dehydrogenase coupled; conditions: <2 min preincubation, ATP 200 μM; read-out: Biochemical IC50, c-Kit Enzyme Assay
T2 construct: contained c-Kit (cKIT residues T544-V976, from ProQinase, 5.4 nM); purchased ProQinase
T2 sequence (P10721 with tags, fused parts or gaps): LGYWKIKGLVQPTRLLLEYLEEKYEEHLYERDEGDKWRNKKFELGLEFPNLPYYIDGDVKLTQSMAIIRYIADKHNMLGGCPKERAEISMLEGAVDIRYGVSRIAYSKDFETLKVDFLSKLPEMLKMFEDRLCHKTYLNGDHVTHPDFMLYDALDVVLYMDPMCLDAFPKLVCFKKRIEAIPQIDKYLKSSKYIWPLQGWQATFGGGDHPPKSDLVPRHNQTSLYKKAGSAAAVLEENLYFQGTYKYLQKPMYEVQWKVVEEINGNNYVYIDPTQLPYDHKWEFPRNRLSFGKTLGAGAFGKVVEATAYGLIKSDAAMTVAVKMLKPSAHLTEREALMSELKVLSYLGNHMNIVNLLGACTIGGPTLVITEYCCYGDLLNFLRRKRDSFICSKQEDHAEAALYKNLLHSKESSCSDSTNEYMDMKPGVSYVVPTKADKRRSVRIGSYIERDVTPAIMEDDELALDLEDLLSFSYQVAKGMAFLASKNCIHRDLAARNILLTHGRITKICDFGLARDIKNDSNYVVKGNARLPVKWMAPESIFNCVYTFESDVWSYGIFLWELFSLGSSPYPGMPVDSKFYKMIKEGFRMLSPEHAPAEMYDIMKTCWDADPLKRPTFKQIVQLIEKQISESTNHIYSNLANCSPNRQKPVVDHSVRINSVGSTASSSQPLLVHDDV
Protocol: C-Kit Kinase (SEQ ID NO:9) Assay
Activity of c-Kit kinase (SEQ ID NO:9) was determined by following the production of ADP from the kinase reaction through coupling with the pyruvate kinase/lactate dehydrogenase system (e.g., Schindler, et al. Science (2000) 289, 1938-1942). In this assay, the oxidation of NADH (thus the decrease at A340 nm) was continuously monitored spectrophometrically. The reaction mixture (100 μl) contained c-Kit (cKIT residues T544-V976, from ProQinase, 5.4 nM), polyE4Y (1 mg/ml), MgCl2 (10 mM), pyruvate kinase (4 units), lactate dehydrogenase (0.7 units), phosphoenol pyruvate (1 mM), and NADH (0.28 mM) in 90 mM Tris buffer containing 0.2% octyl-glucoside and 1% DMSO, pH 7.5. Test compounds were incubated with […] (SEQ ID NO:9) and other reaction reagents at 22° C. for <2 min before ATP (200 μM) was added to start the reaction. The absorption at 340 nm was monitored continuously for 0.5 hours at 30° C. on Polarstar Optima plate reader (BMG). The reaction rate was calculated using the 0 to 0.5 h time frame. Percent inhibition was obtained by comparison of reaction rate with that of a control (i.e. with no test compound). IC50 values were calculated from a series of percent inhibition values determined at a range of inhibitor concentrations using software routines as implemented in the GraphPad Prism software package.

[3] = molecular target: T3, C-Met kinase (SEQ ID NO:10) (Homo sapiens, UniProt P08581); test: C-Met kinase (SEQ ID NO:10) assay, pyruvate kinase/lactate dehydrogenase coupled; conditions: 0.5 h preincubation, ATP 100 μM; read-out: Biochemical IC50, c-Met Enzyme Assay
T3 construct: 956-1390, from Invitrogen, catalogue #PV3143; His6 (N-terminal leader MSYYHHHHHH... with TEV and thrombin sites) (N); purchased Invitrogen PV3143
T3 sequence (P08581 with tags, fused parts or gaps): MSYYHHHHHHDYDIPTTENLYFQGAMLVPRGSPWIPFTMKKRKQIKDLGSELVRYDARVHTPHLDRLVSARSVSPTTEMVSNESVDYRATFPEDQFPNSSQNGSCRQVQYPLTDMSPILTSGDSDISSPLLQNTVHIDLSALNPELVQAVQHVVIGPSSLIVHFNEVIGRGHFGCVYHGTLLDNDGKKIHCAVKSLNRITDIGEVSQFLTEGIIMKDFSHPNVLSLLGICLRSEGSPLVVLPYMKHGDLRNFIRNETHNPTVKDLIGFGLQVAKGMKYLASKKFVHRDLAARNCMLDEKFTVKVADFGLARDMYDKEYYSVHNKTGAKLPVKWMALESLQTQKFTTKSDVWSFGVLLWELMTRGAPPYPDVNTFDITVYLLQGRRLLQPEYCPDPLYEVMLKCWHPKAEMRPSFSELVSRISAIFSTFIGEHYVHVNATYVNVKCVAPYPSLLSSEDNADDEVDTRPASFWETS
In short: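 Human c-Met residues 956-1390 with polyE4Y substrate, pH 7.5; compounds preincubated 0.5 h at 22°C before 100 μM ATP start. ADP formation followed via pyruvate kinase/lactate dehydrogenase coupling as NADH loss at A340 for 2 h at 30°C; rate over 1.0–2.0 h, IC50 from percent-inhibition curves.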

Row | GI50 [1] | IC50 [2] | IC50 [3] | Compound
1 | < 100 nM | < 100 nM | < 1000 nM | 1-(2-fluoro-4-(2-(1-methyl-1H-pyrazol-4-yl)pyridin-4-yloxy)phenyl)-3-(3-(1-methylcyclopentyl)isoxazol-5-yl)urea [Example 14]
2 | < 100 nM | < 100 nM | < 1000 nM | Cn1cc(-c2cc(Oc3ccc(NC(=O)Nc4cc(C(C)(C)C)no4)c(F)c3)ccn2)cn1 [Example 1, 1-(3-t-butylisoxazol-5-yl)-3-(2-fluoro-4-(2-(1-methyl-1H-pyrazol-4-yl)pyridin-4-yloxy)phenyl)urea]
3 | < 100 nM | < 100 nM | < 1000 nM | Cn1cc(-c2cc(Oc3ccc(NC(=O)Nc4cc(C(C)(C)C)nn4C)c(F)c3)ccn2)cn1 [Example 2, 1-(3-t-butyl-1-methyl-1H-pyrazol-5-yl)-3-(2-fluoro-4-(2-(1-methyl-1H-pyrazol-4-yl)pyridin-4-yloxy)phenyl)urea]
4 | < 100 nM | < 100 nM | < 1000 nM | Cn1cc(-c2cc(Oc3ccc(NC(=O)Nc4cccc(C(F)(F)F)c4)c(F)c3)ccn2)cn1 [Example 3, 1-(2-fluoro-4-(2-(1-methyl-1H-pyrazol-4-yl)pyridin-4-yloxy)phenyl)-3-(3-(trifluoromethyl)phenyl)urea]
5 | < 100 nM | < 100 nM | < 10000 nM | Cn1cc(-c2cc(Oc3ccc(NC(=O)Nc4cnn(C(C)(C)C)c4)c(F)c3)ccn2)cn1 [Example 5, 1-(1-t-butyl-1H-pyrazol-4-yl)-3-(2-fluoro-4-(2-(1-methyl-1H-pyrazol-4-yl)pyridin-4-yloxy)phenyl)urea]
6 | < 100 nM | < 100 nM | < 10000 nM | Cn1cc(-c2cc(Oc3ccc(NC(=O)Nc4cncc(C(F)(F)F)c4)cc3)ccn2)cn1 [Example 6, 1-(4-(2-(1-methyl-1H-pyrazol-4-yl)pyridin-4-yloxy)phenyl)-3-(5-(trifluoromethyl)pyridin-3-yl)urea]
7 | < 100 nM | < 100 nM | < 1000 nM | Cn1cc(-c2cc(Oc3ccc(NC(=O)Nc4cnn(C(C)(C)C)c4)c(F)c3F)ccn2)cn1 [Example 8, 1-(1-tert-butyl-1H-pyrazol-4-yl)-3-(2,3-difluoro-4-(2-(1-methyl-1H-pyrazol-4-yl)pyridin-4-yloxy)phenyl)urea]
8 | < 100 nM | < 100 nM | < 10000 nM | Cn1cc(-c2cc(Oc3ccc(NC(=O)Nc4cnn(C(C)(C)C)c4C(F)(F)F)c(F)c3)ccn2)cn1 [Example 9, 1-(1-tert-butyl-5-(trifluoromethyl)-1H-pyrazol-4-yl)-3-(2-fluoro-4-(2-(1-methyl-1H-pyrazol-4-yl)pyridin-4-yloxy)phenyl)urea]
9 | < 100 nM | < 100 nM | < 10000 nM | Cc1c(NC(=O)Nc2ccc(Oc3ccnc(-c4cnn(C)c4)c3)cc2F)cnn1C(C)(C)C [Example 10, 1-(1-tert-butyl-5-methyl-1H-pyrazol-4-yl)-3-(2-fluoro-4-(2-(1-methyl-1H-pyrazol-4-yl)pyridin-4-yloxy)phenyl)urea]
10 | < 100 nM | < 100 nM | < 10000 nM | Cn1cc(-c2cc(Oc3ccc(NC(=O)Nc4nnc(C(C)(C)C)s4)c(F)c3)ccn2)cn1 [Example 11, 1-(5-tert-butyl-1,3,4-thiadiazol-2-yl)-3-(2-fluoro-4-(2-(1-methyl-1H-pyrazol-4-yl)pyridin-4-yloxy)phenyl)urea]
11 | < 100 nM | < 100 nM | < 10000 nM | CN(C)CCn1nc(C(C)(C)C)cc1NC(=O)Nc1ccc(Oc2ccnc(-c3cnn(C)c3)c2)cc1F [Example 12, 1-(3-tert-butyl-1-(2-(dimethylamino)ethyl)-11H-pyrazol-5-yl)-3-(2-fluoro-4-(2-(1-methyl-1H-pyrazol-4-yl)pyridin-4-yloxy)phenyl)urea]
12 | < 100 nM | < 100 nM | < 10000 nM | Cn1cc(-c2cc(Oc3ccc(NC(=O)Nc4cnn(C5CCCC5)c4)c(F)c3)ccn2)cn1 [Example 15, 1-(1-cyclopentyl-1H-pyrazol-4-yl)-3-(2-fluoro-4-(2-(1-methyl-1H-pyrazol-4-yl)pyridin-4-yloxy)phenyl)urea]
13 | < 100 nM | < 100 nM | < 1000 nM | Cn1cc(-c2cc(Oc3ccc(NC(=O)Nc4cncc(C(F)(F)F)c4)c(F)c3)ccn2)cn1 [Example 21, 1-(2-fluoro-4-(2-(1-methyl-1H-pyrazol-4-yl)pyridin-4-yloxy)phenyl)-3-(5-(trifluoromethyl)pyridin-3-yl)urea]
14 | < 100 nM | < 100 nM | < 1000 nM | CC(C)c1cncc(NC(=O)Nc2ccc(Oc3ccnc(-c4cnn(C)c4)c3)cc2F)c1 [Example 22, 1-(2-fluoro-4-(2-(1-methyl-1H-pyrazol-4-yl)pyridin-4-yloxy)phenyl)-3-(5-isopropylpyridin-3-yl)urea]
15 | < 100 nM | < 100 nM | < 100 nM | Cn1cc(-c2cc(Oc3ccc(NC(=O)Nc4cc(C(C)(C)C)no4)c(F)c3F)ccn2)cn1 [Example 25, 1-(3-tert-butylisoxazol-5-yl)-3-(2,3-difluoro-4-(2-(1-methyl-1H-pyrazol-4-yl)pyridin-4-yloxy)phenyl)urea]
16 | < 100 nM | < 100 nM | < 1000 nM | Cn1cc(-c2cc(Oc3ccc(NC(=O)Nc4cc(C(F)(F)F)c[nH]c4=O)c(F)c3)ccn2)cn1 [Example 27, 1-(2-fluoro-4-(2-(1-methyl-1H-pyrazol-4-yl)pyridin-4-yloxy)phenyl)-3-(2-oxo-5-(trifluoromethyl)-1,2-dihydropyridin-3-yl)urea]
17 | < 100 nM | < 100 nM | < 10000 nM | Cc1oc(C(C)(C)C)cc1NC(=O)Nc1ccc(Oc2ccnc(-c3cnn(C)c3)c2)cc1F [Example 28, 1-(5-tert-butyl-2-methylfuran-3-yl)-3-(2-fluoro-4-(2-(1-methyl-1H-pyrazol-4-yl)pyridin-4-yloxy)phenyl)urea]
18 | < 1000 nM | < 100000 nM | < 100000 nM | Cn1cc(-c2cc(Oc3ccc(NC(=O)Nc4cnc(C(C)(C)C)nc4N4CCOCC4)c(F)c3)ccn2)cn1 [Example 41, 1-(2-tert-butyl-4-morpholinopyrimidin-5-yl)-3-(2-fluoro-4-(2-(1-methyl-1H-pyrazol-4-yl)pyridin-4-yloxy)phenyl)urea]
19 | < 100 nM | < 100 nM | < 1000 nM | Cn1cc(-c2cc(Oc3ccc(NC(=O)Nc4cc(C(F)(F)F)cnc4-c4cnn(C)c4)c(F)c3)ccn2)cn1 [Example 42, 1-(2-fluoro-4-(2-(1-methyl-1H-pyrazol-4-yl)pyridin-4-yloxy)phenyl)-3-(2-(1-methyl-1H-pyrazol-4-yl)-5-(trifluoromethyl)pyridin-3-yl)urea]
